{"source": "paper PMC10388311", "about": "“Innovative Strategy toward Mutant CFTR Rescue in Cystic Fibrosis: Design and Synthesis of Thiadiazole Inhibitors of the E3 Ligase RNF5” (Journal of Medicinal Chemistry, 2023)", "target": "F508del-CFTR in CFBE41o– cells (Homo sapiens, UniProt Q99942)", "sequence (Q99942 2-180)": "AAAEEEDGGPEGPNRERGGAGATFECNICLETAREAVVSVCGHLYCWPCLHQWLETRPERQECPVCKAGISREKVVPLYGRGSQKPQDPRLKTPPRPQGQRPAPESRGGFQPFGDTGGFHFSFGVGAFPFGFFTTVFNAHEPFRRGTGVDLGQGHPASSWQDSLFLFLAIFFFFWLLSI", "sequence (P13569 with tags, fused parts or gaps DEL508-508 partner)": "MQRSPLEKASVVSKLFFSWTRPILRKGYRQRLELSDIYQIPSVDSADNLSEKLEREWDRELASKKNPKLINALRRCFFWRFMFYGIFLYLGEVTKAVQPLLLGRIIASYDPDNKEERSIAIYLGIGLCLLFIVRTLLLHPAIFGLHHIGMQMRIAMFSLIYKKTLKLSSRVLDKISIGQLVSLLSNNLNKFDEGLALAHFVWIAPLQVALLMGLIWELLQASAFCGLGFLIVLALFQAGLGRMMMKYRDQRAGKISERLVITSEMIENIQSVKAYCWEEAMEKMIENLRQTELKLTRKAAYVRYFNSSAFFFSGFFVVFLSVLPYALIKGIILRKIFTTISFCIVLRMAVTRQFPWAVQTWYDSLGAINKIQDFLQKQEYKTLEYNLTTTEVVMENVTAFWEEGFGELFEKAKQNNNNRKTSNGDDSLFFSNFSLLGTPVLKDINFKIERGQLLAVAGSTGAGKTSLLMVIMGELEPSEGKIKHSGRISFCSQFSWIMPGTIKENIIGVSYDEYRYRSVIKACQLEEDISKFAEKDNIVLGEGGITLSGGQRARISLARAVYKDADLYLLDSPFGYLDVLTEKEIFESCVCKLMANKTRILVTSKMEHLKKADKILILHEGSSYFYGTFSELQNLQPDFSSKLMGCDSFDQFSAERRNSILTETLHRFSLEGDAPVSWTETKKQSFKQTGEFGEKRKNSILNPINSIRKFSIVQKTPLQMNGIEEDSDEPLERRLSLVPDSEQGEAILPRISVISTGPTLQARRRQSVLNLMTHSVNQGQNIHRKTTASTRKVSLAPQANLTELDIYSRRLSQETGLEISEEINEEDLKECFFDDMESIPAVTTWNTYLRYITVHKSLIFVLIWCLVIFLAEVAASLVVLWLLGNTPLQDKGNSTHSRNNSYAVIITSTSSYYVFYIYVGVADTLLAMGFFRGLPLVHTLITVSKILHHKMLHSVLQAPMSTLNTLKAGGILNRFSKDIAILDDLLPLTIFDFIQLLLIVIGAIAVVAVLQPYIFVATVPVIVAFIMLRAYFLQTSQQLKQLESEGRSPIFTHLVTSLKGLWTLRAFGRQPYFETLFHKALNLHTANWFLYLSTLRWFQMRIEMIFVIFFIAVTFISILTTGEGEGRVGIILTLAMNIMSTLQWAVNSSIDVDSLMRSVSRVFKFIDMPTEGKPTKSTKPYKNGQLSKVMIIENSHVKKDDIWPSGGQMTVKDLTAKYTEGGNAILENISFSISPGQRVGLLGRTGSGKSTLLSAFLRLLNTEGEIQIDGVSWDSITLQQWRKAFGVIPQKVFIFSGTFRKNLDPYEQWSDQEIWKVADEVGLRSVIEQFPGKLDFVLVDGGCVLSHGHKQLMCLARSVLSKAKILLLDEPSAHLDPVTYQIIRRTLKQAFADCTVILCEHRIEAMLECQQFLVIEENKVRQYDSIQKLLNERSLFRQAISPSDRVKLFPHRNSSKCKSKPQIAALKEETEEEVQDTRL", "assay": "CFTR immunoprecipitation and Western blot (CFTR expression and ubiquitylation)", "assay_type": "cell-based", "details": "24 h, 16 5 μM, VX-661 + VX-445 10 μM + 3 μM", "description": "Finally, we evaluated ubiquitylation of mutant CFTR in CFBE41o^– cells following 24 h treatment with DMSO (vehicle), analogue 16, VX-661 + VX-445, and their combination. Subsequently, cells were treated for 4 h with DMSO alone or with MG-132 (10 μM; to block proteasomal degradation) and then lysed. Cell lysates were immunoprecipitated using an anti-CFTR antibody and then subjected to SDS-PAGE followed by Western blotting to evaluate CFTR expression and ubiquitylation status (Figure 9C–F). […] In brief, cells were lysed and, after centrifugation, the protein concentration in the supernatant was calculated using the BCA assay (Euroclone, Pero (MI), Italy) following supplier’s instructions An aliquot of supernatant corresponding to 600 μg of protein was incubated for 1 h with 2 μg/sample of rabbit polyclonal anti-CFTR antibody (Alomone Labs, Jerusalem, Israel), with rocking at room temperature (RT). […] Equal amounts of IP products were analyzed by Western blotting (20 μL). […] In brief, equal amounts of lysates (25 μg) or IP products (20 μL) were separated onto gradient 4–15% Criterion TGX Precast gels (Bio-rad laboratories Inc.), transferred to a nitrocellulose membrane with a Trans-Blot Turbo system (Bio-rad Laboratories Inc.), and analyzed by Western blotting. […]", "data": [{"smiles": "COc1cccc(Cn2c(C)ns/c2=N\\C(=N\\c2ccccc2)c2ccccc2)c1", "note": "[Compound 16, (E)-N-((Z)-4-(3-Methoxybenzyl)-3-methyl-1,2,4-thiadiazol-5(4H)-ylidene)-N′-phenylbenzimidamide]", "values": [{"measurement": "rescue of mutant CFTR (mature form, band C)", "result": "very modest"}]}]}
